According to patent US9096639B2, “17-hydroxy-17-pentafluorethyl-estra-4,9(10)-dien-11-acyloxyalkylene phenyl derivatives, methods for the production thereof and use thereof for treating diseases” (Bayer Intellectual Property GmbH, priority 2009, dated 2015):

How the values were obtained:
[1] = target: T1, human progesterone receptor A (Homo sapiens, UniProt P06401); test: Progesterone receptor transactivation test in stably transfected SK-N-MC cells (PR-A, MMTV-LUC reporter); type: cell-based; details: 0.1 nmol/l promegestone, 24 hours, read-out: PR-A IC50 (antagonistic potency)
T1 construct: expressed in transfected cells; host or cells: SK-N-MC human neuroblastoma cells, stably transfected with pRChPR-A-neo and pMMTV-LUC
T1 sequence (P06401 1-769 isoform P06401-2): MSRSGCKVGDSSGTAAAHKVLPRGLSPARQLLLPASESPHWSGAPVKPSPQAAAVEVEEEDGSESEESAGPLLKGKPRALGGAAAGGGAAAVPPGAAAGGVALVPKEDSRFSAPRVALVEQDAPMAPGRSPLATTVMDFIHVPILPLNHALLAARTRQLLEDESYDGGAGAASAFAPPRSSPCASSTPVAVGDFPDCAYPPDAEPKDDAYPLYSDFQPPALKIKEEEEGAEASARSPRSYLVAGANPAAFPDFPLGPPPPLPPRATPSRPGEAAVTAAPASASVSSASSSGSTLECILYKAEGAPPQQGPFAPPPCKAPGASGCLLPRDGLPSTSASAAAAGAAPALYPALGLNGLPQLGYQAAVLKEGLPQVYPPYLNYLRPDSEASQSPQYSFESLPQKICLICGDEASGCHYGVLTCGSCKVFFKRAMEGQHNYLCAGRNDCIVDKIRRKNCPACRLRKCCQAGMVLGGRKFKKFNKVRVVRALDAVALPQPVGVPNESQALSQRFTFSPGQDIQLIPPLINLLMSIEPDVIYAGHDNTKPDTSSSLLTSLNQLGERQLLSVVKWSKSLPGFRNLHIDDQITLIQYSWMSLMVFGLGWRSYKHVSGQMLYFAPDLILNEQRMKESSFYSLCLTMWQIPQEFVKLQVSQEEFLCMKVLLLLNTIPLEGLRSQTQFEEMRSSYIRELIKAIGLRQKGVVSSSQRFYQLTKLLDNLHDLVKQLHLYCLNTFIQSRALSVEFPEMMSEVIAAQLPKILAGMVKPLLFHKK
Experimental: (§1) Progesterone receptor-antagonistic action in stable transfectants of human neuroblastoma cells (SK-N-MC cells) with the human progesterone A or progesterone B receptor and an MN-LUC reporter construct SK-N-MC cells (human neuroblastoma cells) which have been stably transfected with plasmids expressing the human progesterone receptor B (pRChPR-B-neo) or the human progesterone receptor A (pRChPR-A-neo) and a reporter construct (pMMTV-LUC) were incubated for 24 hours either in the absence (negative control) or in the presence of ascending amounts of the particular test compound (0.01 nmol/l, 0.1 nmol/l, 1 […], 100 nmol/l and […]), in order to determine the agonistic efficacy. As a positive control of the reporter gene induction, the cells were treated with the synthetic gestagen promegestone (0.01 nmol/l, 0.1 nmol/l, 1 nmol/l, 10 nmol/l, 100 nmol/l and […]). To determine the antagonistic activity, the cells were treated with 0.1 nmol/l promegestone and additionally with ascending amounts of the particular test compound (0.01 nmol/l, 0.1 nmol/l, 1 nmol/l, 10 nmol/l, 100 nmol/l and […]). The activity of the reporter gene LUC (LUC=luciferase) was determined in the cell lysates and measured as RLU (relative light units). All measurements are reported as % efficacy and as EC50 and IC50 concentrations.

[2] = Determination of stability in human plasma; type: in vitro ADME
Experimental: (§2) A stock solution of 1.0 mg of the substance to be tested in a 9:1 mixture of acetonitrile and dimethyl sulphoxide was prepared. 20 μl of this stock solution were added at 37° C. to 1 ml of human plasma or rat plasma. To determine the content, 100 μl samples were each taken at different times. The enzyme activity was blocked by adding 300 μl of acetonitrile, the samples were centrifuged at 5000 rpm over 10 minutes and, in the supernatant, the content of ester and hydrolysis products (8S,11R,13S,14S,17S)-17-hydroxy-11-[4-((R)-1-hydroxyethyl)phenyl]-1 3-methyl-17-pentafluoroethyl-1,2,6,7,8,11,12,13,14,15,16,17-dodecahydrocyclopenta[a]phenanthren-3-one and/or (8S,11R,13S,14S,17S)-17-hydroxy-11-[4-((S)-1-hydroxyethyl)phenyl]-13-methyl-17-pentafluoroethyl-1,2,6,7,8,11,12,13,14,15,16,17-dodecahydrocyclopenta[a]phenanthrene-3-one was determined by HPLC. The concentration-time curves were used to calculate the degradation kinetics. The stability of the substance tested was reported as the half-life.

[3] = Determination of hydrolytic stability (5:1 dioxane/buffer, HPLC); type: physicochemical; details: 5:1 dioxane/buffer solution, test ended after 24 or 192 hours, read-out: Hydrolytic stability t1/2
Experimental: The ester to be analyzed was dissolved in each case in a 5:1 mixture of dioxane and buffer solution (pH 1.2, pH 5.0 or pH 8.0) at 23° C. At different times, the content of ester and hydrolysis products (8S,11R,13S,14S,1 7S)-17-hydroxy-11-[4-((R)-1-hydroxyethyl)phenyl]-13-methyl-17-pentafluoroethyl-1,2,6,7,8,11,12,13,14,15,16,17-dodecahydrocyclopenta[a]phenanthren-3-one and/or (8S,11R,13S,14S,17S)-17-hydroxy-11-[4-((S)-1-hydroxyethyl)phenyl]-1 3-methyl-17-pentafluoroethyl-1,2,6,7,8,11,12,13,14,15,16,17-dodecahydrocyclopenta[a]phenanthren-3-one was determined by HPLC. The test was ended after 24 hours or 192 hours.

[4] = Determination of stability in rat plasma; type: in vitro ADME; details: 37° C., read-out: Stability t1/2 in rat plasma (converted)
Experimental: as §2

[5] = target: T2, human progesterone receptor B (Homo sapiens, UniProt P06401); test: Progesterone receptor transactivation test in stably transfected SK-N-MC cells (PR-B, MMTV-LUC reporter); type: cell-based; details: 0.1 nmol/l promegestone, 24 hours, read-out: PR-B IC50 (antagonistic potency)
T2 construct: expressed in transfected cells; host or cells: SK-N-MC human neuroblastoma cells, stably transfected with pRChPR-B-neo and pMMTV-LUC
T2 sequence (P06401 1-933): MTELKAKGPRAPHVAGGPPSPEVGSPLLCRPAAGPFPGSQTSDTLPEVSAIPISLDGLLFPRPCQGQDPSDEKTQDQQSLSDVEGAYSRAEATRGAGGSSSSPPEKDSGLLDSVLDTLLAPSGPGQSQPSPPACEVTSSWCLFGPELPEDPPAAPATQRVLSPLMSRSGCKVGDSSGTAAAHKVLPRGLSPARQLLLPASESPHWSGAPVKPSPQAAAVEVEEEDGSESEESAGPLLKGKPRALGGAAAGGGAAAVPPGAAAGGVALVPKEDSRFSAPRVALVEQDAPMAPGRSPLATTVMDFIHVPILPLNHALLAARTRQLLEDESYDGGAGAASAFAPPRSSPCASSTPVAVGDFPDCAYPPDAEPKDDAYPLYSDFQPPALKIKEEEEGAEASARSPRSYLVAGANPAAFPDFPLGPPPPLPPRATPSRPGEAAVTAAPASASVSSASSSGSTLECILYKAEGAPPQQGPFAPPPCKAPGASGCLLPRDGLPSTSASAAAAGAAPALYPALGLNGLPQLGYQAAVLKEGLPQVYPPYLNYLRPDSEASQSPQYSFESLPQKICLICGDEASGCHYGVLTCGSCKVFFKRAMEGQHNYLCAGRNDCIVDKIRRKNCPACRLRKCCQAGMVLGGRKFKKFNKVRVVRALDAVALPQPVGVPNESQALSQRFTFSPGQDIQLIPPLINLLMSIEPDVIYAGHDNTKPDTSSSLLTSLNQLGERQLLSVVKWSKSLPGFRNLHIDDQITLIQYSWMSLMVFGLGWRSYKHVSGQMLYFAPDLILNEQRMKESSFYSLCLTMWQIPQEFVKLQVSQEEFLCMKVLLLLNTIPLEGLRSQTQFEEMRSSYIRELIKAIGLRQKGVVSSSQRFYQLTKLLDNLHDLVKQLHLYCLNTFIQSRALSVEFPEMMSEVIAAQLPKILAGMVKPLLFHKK
Experimental: as §1

C=CCOC(=O)N[C@H](C(=O)OC(C)c1ccc([C@H]2C[C@@]3(C)C(CC[C@@]3(O)C(F)(F)C(F)(F)F)C3CCC4=CC(=O)CCC4=C32)cc1)C(C)C (mixture of isomers) [Example 16, (S)-2-Allyloxycarbonylamino-3-methylbutyric acid (RS)-1-[4-((8S,11R,13S,14S,17S)-17-hydroxy-1 3-methyl-3-oxo-1 7-pentafluoroethyl-2,3,6,7,8,11,12,13,14,15,16,17-dodecahydro-1H-cyclopenta[a]phenanthren-11-yl)phenyl]ethyl ester]
IC50 [1]: 110 pM
half-life ([2]; 37° C., read-out: Stability t1/2 in human plasma (converted)): > 1000 h
half-life ([2]; method of working example 19, summary statement in description, read-out: half-life in human plasma): > 100 h
half-life ([3]; pH = 1.2, 23° C.): > 192 h
half-life ([3]; pH = 8.0, 23° C.): > 192 h
half-life [4]: 33.2 h
IC50 [5]: 710 pM
